Legend:
[1] = respiratory minute volume and mean arterial blood pressure in rats; format: in vivo; conditions: with phenoperidine, intravenously, doses substantially greater than required for NLA; in words
[2] = anesthesia time of rats exposed to halothane anesthesia (recovery of righting reflex); format: in vivo, male albino rats (Sprague-Dawley)
Description: The effects of Compound I on halothane-induced anesthesia were assessed using 20 rats for each dose or time interval determination. The experiments were performed on male albino rats (Sprague-Dawley) weighing from 180-220 g. A schematic representation of the apparatus used is illustrated in FIG. 1. The apparatus consists of a rectangular box made of transparent plastic (115 cm long × 28 cm high × 28 cm wide) which is divided into 4 equal chambers by perforated walls. The box rotates around a hollow axis through which gases can be delivered at several proportions from cylinders, through their respective flowmeters. An in-line halothane vaporizer is placed just before the gases reach the chambers. There is an air-tight door to every chamber through which two animals, one treated and one control, are introduced. The gases are delivered at one end of the box and suction is applied to the other end to take up the gases after flowing through the chambers. An in-line water manometer monitors the resulting pressure. This pressure is kept at 0-5 mm H2 O to make certain the gases in the anesthetic chambers remain at atmospheric pressure. The mixture of gases is delivered at a rate of 15 l/min. The inhalation anesthetic gases are delivered for ten minutes prior to the introduction of the animals into the chambers to assure an even distribution in the four chambers. The chambers rotate at four rev/min forcing the animals to tumble and allowing the experimenter to accurately time the loss and recovery of the righting reflex. Induction times are recorded as the time interval elapsed between the beginning of exposure of the animals to the gases and the moment in which they lose their righting reflex.
Groups of control animals (four at a time) were subjected to halothane concentrations ranging from 0.5 to 2.5% in a mixture of 95% O2 -5% CO2, and the induction times thus obtained were used to calculate concentration-reponse curves. Since a certain time elapsed between putting the first and the last rat into their respective chambers, each animal was timed separately with a stopwatch. […] This intermediate concentration of halothane was then used to study the effects of increasing doses of the test compound on the induction times and anesthesia times.
The animals were pretreated by administering the test compounds in dosages ranging from 10 to 500 μg/kg, i.v., at 5, 30, 60, 120, 240 and 360 minutes prior to their exposure to halothane. As soon as all animals lost their righting reflex, the O2 -halothane flow was discontinued and replaced by an equal flow of air. The animals were allowed to remain in the rotating chambers until they regained their righting reflex. Anesthesia times were determined as the interval between the time required to lose and the time to regain the righting reflex. Air flushing of the anesthetic chambers was performed after each determination and the entire procedure repeated with another group of animals for the determination of the effect of a new dose or concentration.
Drugs used in this study include: droperidol, phenoperidine hydrochloride, halothane and Compound I in the form of its hydrochloride salt. Phenoperidine hydrochloride and Compound I (hydrochloride) were dissolved separately in a warm solution of 0.9% sodium chloride. Droperidol was suspended in saline with the aid of a drop ot Tween 80 (Tween 80 is a registered trademark for a complex mixture of polyoxyethylene ethers of mixed partial oleic esters of sorbitol anhydride). Dosages are expressed in this study as the salt form of the compound where applicable. When the experimental protocol called for the concomitant administration of two drugs, these were mixed in the syringe and administered intravenously. The drugs were injected in a volume of 0.1 ml/100 g body weight.
The statistical analysis of the data was performed using Student's […]. […]

[3] = respiratory minute volume and mean arterial blood pressure in rats; format: in vivo
Description: These effects are less than those encountered with neuroleptics presently available for NLA as evidenced by laboratory experiments in rats in which these cardiovascular parameters are measured before and after the administration of Compound 1 and the neuroleptic agent droperidol, see Table 8.
The Effect of Compound 1 and Droperidol on Respiratory Minute Volume
and Mean Arterial Blood Pressure

With CC(C)[C@@]1(O)CCN2C[C@@H]3c4ccccc4CCc4cccc(c43)[C@H]2C1 [Compound 1, (+)(4a,13b-trans)-(3-hydroxy,13b-trans)-3-isopropyl-2,- 3,4,4a,8,9,13b,14-octahydro-lH-benzo[6,7]cyclohepta[1,2,3-de]pyrido[2,1-a]isoquinolin-3-ol] the “effect on respiratory depression caused by analgesic agents” value [1] was “only slightly changed”, the “Anesthesia time, treated” value ([2]; 10 μg/kg i.v., 5 min before 0.75% halothane) was 3.67 min and the “Anesthesia time, treated” value ([2]; 10 μg/kg i.v., 5 min before 1.0% halothane) was 3.16 min. For the same compound, the “Anesthesia time, treated” value ([2]; 10 μg/kg i.v., 5 min before 1.5% halothane) was 3.84 min, the “Anesthesia time, treated” value ([2]; 10 μg/kg i.v., 5 min before 2.0% halothane) was 4.68 min and the “Anesthesia time, treated” value ([2]; 10 μg/kg i.v., 5 min before 2.5% halothane) was 5.42 min. The “Anesthesia time, treated” value ([2]; 25 μg/kg i.v., 5 min before 0.75% halothane) was 3.78 min, the “Anesthesia time, treated” value ([2]; 25 μg/kg i.v., 5 min before 1.0% halothane) was 3.62 min and the “Anesthesia time, treated” value ([2]; 25 μg/kg i.v., 5 min before 1.5% halothane) was 4.61 min. For the same compound, the “Anesthesia time, treated” value ([2]; 25 μg/kg i.v., 5 min before 2.0% halothane) was 5.09 min, the “Anesthesia time, treated” value ([2]; 25 μg/kg i.v., 5 min before 2.5% halothane) was 5.26 min and the “Anesthesia time, treated” value ([2]; 50 μg/kg i.v., 5 min before 0.75% halothane) was 5.16 min. The “Anesthesia time, treated” value ([2]; 50 μg/kg i.v., 5 min before 1.0% halothane) was 4.67 min, the “Anesthesia time, treated” value ([2]; 50 μg/kg i.v., 5 min before 1.5% halothane) was 4.59 min and the “Anesthesia time, treated” value ([2]; 50 μg/kg i.v., 5 min before 2.0% halothane) was 4.49 min. The “Anesthesia time, treated” value ([2]; 50 μg/kg i.v., 5 min before 2.5% halothane) was 4.96 min, the “Anesthesia time, treated” value ([2]; 100 μg/kg i.v., 5 min before 0.75% halothane) was 6.33 min and the “Anesthesia time, treated” value ([2]; 100 μg/kg i.v., 5 min before 1.0% halothane) was 5.34 min. The “Anesthesia time, treated” value ([2]; 100 μg/kg i.v., 5 min before 1.5% halothane) was 4.79 min, the “Anesthesia time, treated” value ([2]; 100 μg/kg i.v., 5 min before 2.0% halothane) was 5.49 min and the “Anesthesia time, treated” value ([2]; 100 μg/kg i.v., 5 min before 2.5% halothane) was 5.62 min. For the same compound, the “Anesthesia time, treated” value ([2]; 200 μg/kg i.v., 5 min before 0.75% halothane) was 6.54 min, the “Anesthesia time, treated” value ([2]; 200 μg/kg i.v., 5 min before 1.0% halothane) was 5.37 min and the “Anesthesia time, treated” value ([2]; 200 μg/kg i.v., 5 min before 1.5% halothane) was 4.94 min. For the same compound, the “Anesthesia time, treated” value ([2]; 200 μg/kg i.v., 5 min before 2.0% halothane) was 5.33 min, the “Anesthesia time, treated” value ([2]; 200 μg/kg i.v., 5 min before 2.5% halothane) was 5.89 min and the “Anesthesia time, treated” value ([2]; 250 μg/kg i.v., 5 min before 0.75% halothane) was 6.26 min. For the same compound, the “Anesthesia time, treated” value ([2]; 250 μg/kg i.v., 5 min before 1.0% halothane) was 5.81 min, the “Anesthesia time, treated” value ([2]; 250 μg/kg i.v., 5 min before 1.5% halothane) was 5.52 min and the “Anesthesia time, treated” value ([2]; 250 μg/kg i.v., 5 min before 2.0% halothane) was 5.92 min. The “Anesthesia time, treated” value ([2]; 250 μg/kg i.v., 5 min before 2.5% halothane) was 6.37 min, the “Anesthesia time, treated” value ([2]; 500 μg/kg i.v., 5 min before 1.0% halothane) was 5.69 min and the “increase of anesthesia time” value ([2]; five minutes after i.v. administration, 1% halothane) was “approximately 70%”. The “effect on anesthesia time” value ([2]; halothane, in words) was “increased considerably”, the “duration of anesthesia effect with added analgesic” value ([2]; plus 25 μg/kg i.v. phenoperidine hydrochloride, 1% halothane (FIG. 3), in words) was “potentiates the duration of anesthesia effect” and the “Change in Mean B.P. as % of Control” value ([3]; 25 μg/kg) was -0.83 ± 0.83 % of Control. For the same compound, the “Change in Minute Volume as % of Control” value ([3]; 25 μg/kg) was “+4.2 ± 1.4 % of Control”, the “Change in Mean B.P. as % of Control” value ([3]; 100 μg/kg) was -4.1 ± 2.6 % of Control and the “Change in Minute Volume as % of Control” value ([3]; 100 μg/kg) was “+6.8 ± 1.9 % of Control”. The “Change in Mean B.P. as % of Control” value ([3]; 250 μg/kg) was -8.9 ± 1.6 % of Control, the “Change in Minute Volume as % of Control” value ([3]; 250 μg/kg) was “+6.6 ± 2.7 % of Control” and the “effect on respiratory minute volume” value ([3]; in words) was “only a very small increase in minute volume”. The “effect on mean arterial blood pressure” value ([3]; upper level of therapeutically effective neuroleptic dosages, in words) was “minor diminution of blood pressure”.
